Laboratory results taken from patent publication US5885834A, “Antisense oligodeoxynucleotide against phosphodiesterase” (priority 1997, dated 1999).
Entries after “also recorded” stand apart in the source; their conditions may differ.

Tested on: PDE1B1 mRNA in RPMI 8392 cells
Experiment: Quantitative RT-PCR of PDE1B1 mRNA after ODN treatment
Assay type: cell-based, human
Details: 10 or 30 μM ODN
Description: This is usually determined by looking at the reduction or disappearance of the protein product, either by selective measurement of an enzymatic activity of the protein, where applicable, or by immunoquantitation with specific antibodies by Western blot or ELISA techniques. Also, when PO or PS ODNs are used, which are capable of activating RNase H activity, it is expected that the mRNA of the targeted gene would be down regulated, most of the time, along with the protein product, and this can be readily tested by Northern blot analysis or PCR techniques. Using quantitative RT-PCR with primers specific for PDE1B1, we examined the RPMI 8392 cells for the presence of PDE1B1 mRNA. […] NS ODN, at these concentrations, had no effect on the expression of PDE1B1 mRNA. […] In this connection, the expression of β-actin is unaffected by cAMP and, therefore, β-actin mRNA levels were used as a control. Another gene that is often also used for control measurements for this purpose is that of glyceraldehyde-3-phosphate dehydrogenase (G3PDH).
HPBL were isolated from a normal human donor and placed in culture with (+PHA) or without (-PHA) phytohemagglutinin for 3 days. Quantitative RT-PCR was performed with 2 μg of HPBL RNA, using reagents and protocol from GIBCO/BRL. Degenerate 23 nt primers were synthesized based on reported sequences for PDE1B1. The sequence of the forward primer (Primer 1) corresponds to nt -34 to -12 and the sequence of the reverse primer (Primer 2) is complementary to nt 277 to 299 of the PDE1B1 cDNA. […]
Using quantitative RT-PCR, the effect of AS ODN and NS ODN on the level of mRNA for PDE1B1 in RPMI 8392 cells was examined. Quantitative RT-PCR was used to determine the relative amounts of β-actin and PDE1B1 mRNAs present in RPMI 8392 cells after 1 and 2 days in culture with 10 μM and 30 μM AS ODN (AS) and NS ODN (NS). […]

Row | Substance | Level of PDE1B1 mRNA expression (1 day) | Level of PDE1B1 mRNA expression (2 days) | Level of PDE1B1 mRNA expression (1 and 2 days)
1 | 5'-GGACAGCTCCATGCTCAG-3' (phosphorothioate, further chemistry not given here) [AS ODN, 18 nt phosphorothioate antisense oligodeoxynucleotide targeted against the translation initiation region of PDE1B1] | diminished | absent; also recorded: almost undetectable | –
2 | 5'-TACGTGAGGCACCTACGC-3' (phosphorothioate, further chemistry not given here) [NS ODN, control phosphorothioate nonsense ODN, same base composition as the AS ODN in random, scrambled order] | – | – | no effect
